Source: ChEMBL document CHEMBL5725801, “Fused heterocyclic compounds as CaM kinase inhibitors” (2018)

Experiment: CaMKII Cell-Based Activity: CaMKII activity in neonatal rat ventricular myocytes (NRVM) was measured by monitoring the phosphorylation level of phospholamban using high-content imaging. NRVMs were plated in a clear bottom 384-well plate in medium supplemented with 10% fetal bovine serum (FBS) and incubated at 37° C., 5% CO2 overnight. The medium was changed to a serum-free medium and compounds were dosed to the cells. The cells were incubated at 37° C., 5% CO2 for 4 hours and were then treated with 100 nM ATX-II (Alomone Labs) to activate CaMKII. 10 minutes after the addition of ATX-II, the cells were fixed with 4% formaldehyde followed by permeabilization with 0.1% triton X100. The fixed cells were stained with an anti-phospho-phospholamban primary antibody (Santa Cruz Biotechnology) and an Alexa488-labeled anti-rabbit IgG secondary antibody (Life Technologies Corporation) as well as Hoechst 33342 (Life Technologies Corporation). The cells were imaged using an ArrayScan VTI (Cellomics) and analyzed for cells containing a positive fluorescent signal at 485 nm, reported as % responder. The % responders were plotted against the compound concentration to determine the compounds EC50.

Row | SMILES | EC50
1 | NC[C@H]1CCCCN1C(=O)c1cc(Cl)nc(-c2cnn3ccc(-c4cccs4)nc23)c1 | 0.0237 µM
2 | CCN(CC)[C@@H](C)CNC(=O)c1cc(-c2cnn3ccc(-c4cncnc4)nc23)nc(N2CC(OC)C2)c1 | 0.519 µM
3 | CCN(CC)[C@@H](C)CNC(=O)c1cc(-c2cnn3ccc(-c4cccs4)nc23)nc(N(C)S(C)(=O)=O)c1 | 0.0096 µM
4 | CCN(CC)[C@@H](C)CNC(=O)c1cc(NC[C@@H](C)O)nc(-c2cnn3ccc(-c4cccs4)nc23)c1 | 0.0327 µM
5 | CCCNC(CC)CNC(=O)c1ccnc(-c2cnn3ccc(-c4ccccc4)nc23)c1 (stereo not given) | 0.00815 µM
6 | CNc1cnc(-c2cnn3ccc(-c4ccccc4)nc23)cc1C(=O)N1CCCC[C@@H]1CN | 0.0218 µM
7 | C[C@@H](CNC(=O)c1ccnc(-c2cnn3ccc(-c4cccs4)nc23)c1)NCCF | 0.0952 µM
8 | CCN[C@H](C)CNC(=O)c1ccnc(-c2cnn3ccc(-c4cccs4)nc23)c1 | 0.0348 µM
9 | O=C(c1ccnc(-c2cnn3ccc(-c4ccccc4)nc23)c1)N1CCCCC12CCCNC2 (stereo not given) | 0.0453 µM
10 | CCN(CC)[C@@H](C)CNC(=O)c1cccc(-c2cnn3ccc(-c4cccs4)nc23)n1 | 0.103 µM
11 | NC[C@H]1CCCN1C(=O)c1ccnc(-c2cnn3ccc(-c4cccs4)nc23)c1 | 0.0583 µM
12 | CCNC(CNC(=O)c1ccnc(-c2cnn3ccc(-c4ccccc4)nc23)c1)C(C)C (stereo not given) | 0.107 µM
13 | C[C@@H](CNC(=O)c1ccnc(-c2cnn3ccc(-c4cccs4)nc23)c1)NCC1CC1 | 0.0151 µM
14 | CCC[C@@]1(CNC(=O)c2ccnc(-c3cnn4ccc(-c5cccs5)nc34)c2)CCCN1 | 0.0992 µM
15 | C[C@@H](CNC(=O)c1ccnc(-c2cnn3ccc(-c4cccs4)nc23)c1)NCCO | 0.301 µM
16 | N[C@H]1CCC[C@@H]1NC(=O)c1ccnc(-c2cnn3ccc(-c4ccccc4)nc23)c1 | 0.287 µM
17 | Nc1cc(C(=O)N2C3CCNCC2CC3)cc(-c2cnn3ccc(-c4cccs4)nc23)n1 (stereo not given) | 0.111 µM
18 | CCN(CC)CCNC(=O)c1cc(NCCO)nc(-c2cnn3ccc(-c4cccs4)nc23)c1 | 0.136 µM
19 | CCN(CCN)C(=O)c1ccnc(-c2cnn3ccc(-c4ccccc4)nc23)c1 | 0.169 µM
20 | CCN(CC)[C@@H](C)CNC(=O)c1cc(NCCCOC)nc(-c2cnn3ccc(-c4cccs4)nc23)c1 | 0.0319 µM
21 | C[C@@H](NC(=O)c1ccnc(-c2cnn3ccc(-c4cccs4)nc23)c1)[C@@H]1CCCN1 | 0.518 µM
22 | CCCN[C@@H](C)CNC(=O)c1ccnc(-c2cnn3ccc(-c4cccs4)nc23)c1 | 0.0652 µM
23 | CCN(CC)[C@@H](C)CNC(=O)c1cc(NCCN2CC(F)(F)C2)nc(-c2cnn3ccc(-c4cccs4)nc23)c1 | 0.0456 µM
24 | CCN(CC)[C@@H](C)CNC(=O)c1cc(N[C@@H](C)C(N)=O)nc(-c2cnn3ccc(-c4cccs4)nc23)c1 | 0.148 µM
25 | CCN(CC)[C@@H](C)CNC(=O)c1cc(NCc2ncc[nH]2)nc(-c2cnn3ccc(-c4cccs4)nc23)c1 | 0.148 µM
26 | CCN(CC)[C@@H](C)CNC(=O)c1cc(N)nc(-c2cnn3ccc(-c4ccccc4)nc23)c1 | 0.025 µM

Row | SMILES | EC50
27 | N[C@@H]1CCC[C@H]1NC(=O)c1ccnc(-c2cnn3ccc(-c4ccccc4)nc23)c1 | 0.259 µM
28 | CCN[C@@H](C)CNC(=O)c1cc(CC)nc(-c2cnn3ccc(-c4ccccc4)nc23)c1 | 0.17 µM
29 | CCN[C@@H](C)CNC(=O)c1cc(C)nc(-c2cnn3ccc(-c4ccccc4)nc23)c1 | 0.284 µM
30 | CCN(CC)[C@@H](C)CNC(=O)c1cc(OC[C@H]2CCCO2)nc(-c2cnn3ccc(-c4cccs4)nc23)c1 | 0.0278 µM
31 | CNC(=O)[C@@H]1CCN1c1cc(C(=O)NC[C@H](C)N)cc(-c2cnn3ccc(-c4cccs4)nc23)n1 | 6.74 µM
32 | CC[C@@]1(CNC(=O)c2ccnc(-c3cnn4ccc(-c5cccs5)nc34)c2)CCCN1 | 0.129 µM
33 | CCN(CC)[C@@H](C)CNC(=O)c1cc(NS(C)(=O)=O)nc(-c2cnn3ccc(-c4cccs4)nc23)c1 | 0.107 µM
34 | CCN(CC)[C@@H](C)CNC(=O)c1cc(-c2cnn3ccc(-c4ccncc4)nc23)nc(N2CC(OC)C2)c1 | 0.607 µM
35 | O=C(c1cc(-c2cnn3ccc(-c4cccs4)nc23)nc(N2CCN(C3COC3)CC2)c1)N1CC2CCC(C1)NC2 (stereo not given) | 0.0818 µM
36 | NC[C@H]1CCCCN1C(=O)c1cc(-c2cnn3ccc(-c4ccccc4)nc23)nc(C(F)(F)F)c1 | 0.0652 µM
37 | O=C(c1ccnc(-c2cnn3ccc(-c4ccccc4)nc23)c1)N1CCCC12CCCNC2 (stereo not given) | 0.0082 µM
38 | CCC(N)CNC(=O)c1ccnc(-c2cnn3ccc(-c4ccccc4)nc23)c1 (stereo not given) | 0.0809 µM
39 | O=C(c1ccnc(-c2cnn3ccc(-c4ccccc4)nc23)c1)N1CCC2CNCC21 (stereo not given) | 0.0485 µM
40 | CCC(CNC(=O)c1ccnc(-c2cnn3ccc(-c4cccs4)nc23)c1)NC(C)C (stereo not given) | 0.06 µM
41 | CCN(CC)[C@@H](C)CNC(=O)c1cc(-c2cnn3ccc(-c4cccs4)nc23)nc(N2CC(NS(=O)(=O)C(C)C)C2)c1 | 0.0315 µM
42 | CCN[C@H](C)CNC(=O)c1ccnc(-c2cnn3ccc(-c4ccccc4)nc23)c1 | 0.0731 µM
43 | NC[C@H]1CCCCN1C(=O)c1cc(-c2cnn3ccc(-c4ccccc4)nc23)ncc1Cl | 0.0352 µM
44 | CCN(CC)[C@@H](C)CNC(=O)c1cc(NCCN(C)C)nc(-c2cnn3ccc(-c4cccs4)nc23)c1 | 0.059 µM
45 | CCC(N)CNC(=O)c1ccnc(-c2cnn3ccc(-c4cccs4)nc23)c1 (stereo not given) | 0.0229 µM
46 | N[C@H]1CCN(C(=O)c2ccnc(-c3cnn4ccc(-c5cccs5)nc34)c2)C1 | 0.172 µM
47 | CCN(CC)C(C)CNC(=O)c1ccnc(-c2cnn3ccc(-c4ccccc4)nc23)c1 (stereo not given) | 0.103 µM
48 | CCN(CC)[C@@H](C)CNC(=O)c1cc(-c2cnn3ccc(-c4cccs4)nc23)nc(N2CC(NS(=O)(=O)Cc3ccon3)C2)c1 | 0.027 µM
49 | CCN(CC)[C@@H](C)CNC(=O)c1cc(OCC(C)(C)O)nc(-c2cnn3ccc(-c4cccs4)nc23)c1 | 0.0384 µM
50 | N[C@H]1C[C@@H]2CCC[C@H]1N2C(=O)c1ccnc(-c2cnn3ccc(-c4ccccc4)nc23)c1 | 0.074 µM
51 | CC[C@]1(CNC(=O)c2ccnc(-c3cnn4ccc(-c5ccccc5)nc34)c2)CCCN1 | 0.143 µM

The remaining lines, values ahead:

Row | EC50 | SMILES
52 | 0.118 µM | CCN(CC)[C@@H](C)CNC(=O)c1cc(-c2cnn3ccc(-c4cccs4)nc23)nc(N2CC[C@H]2C(=O)N2CCS(=O)(=O)CC2)c1
53 | 0.0313 µM | CCN(CC)[C@@H](C)CNC(=O)c1cc(-c2cnn3ccc(-c4cccs4)nc23)nc(N2CC(S(C)(=O)=O)C2)c1
54 | 0.121 µM | CCN(CC)[C@@H](C)CNC(=O)c1cc(-c2cnn3ccc(-c4cccs4)nc23)nc(N2CCn3ccnc3C2)c1
55 | 0.0567 µM | CCN(CC)[C@@H](C)CNC(=O)c1cc(-c2cnn3ccc(-c4cccs4)nc23)nc(N2CC(O)(C3CC3)C2)c1
56 | 0.25 µM | CCN(CC)[C@@H](C)CNC(=O)c1cc(-c2cnn3ccc(-c4cccs4)nc23)nc(N2C[C@H](O)[C@@H](O)C2)c1
57 | 0.096 µM | CCN(CC)[C@@H](C)CNC(=O)c1cc(-c2cnn3ccc(-c4cccs4)nc23)nc(N2CCNC(=O)C2)c1
58 | 0.0662 µM | CCN(CC)[C@@H](C)CNC(=O)c1cc(O[C@@H]2CCOC2)nc(-c2cnn3ccc(-c4cccs4)nc23)c1
59 | 0.0471 µM | CCN(CC)[C@@H](C)CNC(=O)c1cc(-c2cnn3ccc(-c4cccs4)nc23)nc(N2CC[C@H]2C(=O)NCCOC)c1
60 | 0.281 µM | CCN(CC)[C@@H](C)CNC(=O)c1cc(-c2cnn3ccc(-c4cccs4)nc23)nc(N2CC[C@H]2C(=O)N2CC(S(C)(=O)=O)C2)c1
61 | 0.067 µM | CCN(CC)[C@@H](C)CNC(=O)c1cc(-c2cnn3ccc(-c4cccs4)nc23)nc(N2CCNCC2)c1
62 | 0.0213 µM | CCN(CC)[C@@H](C)CNC(=O)c1cc(-c2cnn3ccc(-c4cccs4)nc23)nc(N2CC[C@H]2C(=O)N2CCOCC2)c1
63 | 0.0281 µM | CCN(CC)[C@@H](C)CNC(=O)c1cc(-c2cnn3ccc(-c4cccs4)nc23)nc(N2CCC(F)(F)C2)c1
64 | 0.0242 µM | CCN(CC)[C@@H](C)CNC(=O)c1cc(NC2CCOCC2)nc(-c2cnn3ccc(-c4cccs4)nc23)c1
65 | 0.0136 µM | CCCN(CC)[C@@H](C)CNC(=O)c1cc(-c2cnn3ccc(-c4cccs4)nc23)nc(N2CC[C@H]2C(=O)NC)c1
66 | 0.0714 µM | CCN(CC)[C@@H](C)CNC(=O)c1cc(-c2cnn3ccc(-c4cccs4)nc23)nc(N2CC(C(N)=O)C2)c1
67 | 0.0655 µM | CCN(CC)[C@@H](C)CNC(=O)c1cc(-c2cnn3ccc(-c4cccs4)nc23)nc(N2CCC(O)C(F)(F)C2)c1 (stereo not given in full)
68 | 0.0274 µM | CCN(CC)[C@@H](C)CNC(=O)c1cc(NC(=O)C2CC2)nc(-c2cnn3ccc(-c4cccs4)nc23)c1
69 | 0.0306 µM | CCN(CC)[C@@H](C)CNC(=O)c1cc(NC2CC2)nc(-c2cnn3ccc(-c4cccs4)nc23)c1
70 | 0.0868 µM | CCN(CC)[C@@H](C)CNC(=O)c1cc(OCCN2CCOCC2)nc(-c2cnn3ccc(-c4cccs4)nc23)c1
71 | 0.0849 µM | CCN(CC)[C@@H](C)CNC(=O)c1cc(-c2cnn3ccc(-c4cccs4)nc23)nc(N2CC[C@H]2C(=O)NCCO)c1
72 | 0.0247 µM | CCN(CC)[C@@H](C)CNC(=O)c1cc(-c2cnn3ccc(-c4cccs4)nc23)nc(N2CC(O)(CC)C2)c1
73 | 0.0368 µM | CCC(CNC(=O)c1cc(-c2cnn3ccc(-c4cccs4)nc23)nc(N2CC[C@H]2C(=O)NC)c1)N(CC)CC (stereo not given in full)
74 | 0.051 µM | CCN(CC)[C@@H](C)CNC(=O)c1cc(-c2cnn3ccc(-c4cccs4)nc23)nc(N2CC(S(=O)(=O)NC3CC3)C2)c1
75 | 0.0653 µM | CCN(CC)[C@@H](C)CNC(=O)c1cc(-c2cnn3ccc(-c4cccs4)nc23)nc(N2CC[C@H]2C(=O)NCC#N)c1
76 | 0.0137 µM | CCN(CC)[C@@H](C)CNC(=O)c1cc(-c2cnn3ccc(-c4cccs4)nc23)nc(N2CC(OC)C2)c1
77 | 0.152 µM | CCN(CC)[C@@H](C)CNC(=O)c1cc(-c2cnn3ccc(-c4cccs4)nc23)nc(N2CC[C@H]2C(=O)N2CC(O)C2)c1
78 | 0.0173 µM | CCN(CC)[C@@H](C)CNC(=O)c1cc(-c2cnn3ccc(-c4cccs4)nc23)nc(N2CC(F)(F)C2)c1
79 | 0.0576 µM | CC[C@@H](CNC(=O)c1cc(-c2cnn3ccc(-c4cccs4)nc23)nc(N2CC[C@H]2C(=O)NC)c1)N(CC)CCO
80 | 0.0801 µM | CCN(CC)[C@@H](C)CNC(=O)c1cc(-c2cnn3ccc(-c4cccs4)nc23)nc(N2CC[C@@H]2COC)c1
